Measured values published in patent US6468537B1, “Localization of major peptide autoepitopes for nucleosome specific T cells of systemic lupus erythematosus” (The Board of Trustees of Northwestern University, priority 1999, dated 2002).

How the values were obtained:
[1] = tested on: CD4+ T cell clone DD2; experiment: IL-2 production by lupus Th cell clone DD2 in response to histone peptides; assay type: cell-based, human; conditions: for stimulation of DD2: autologous EBV-B cells pulsed with peptide as APC
Method: Short-term T cell lines were rapidly thawed from liquid nitrogen and expanded in the presence of plate-bound anti-CD3 mAb, anti-CD28 mAb, and rIL-2 (20 units per milliliter). The expanded cells were transferred to fresh culture wells and rested by incubating in fresh medium for 10 to 14 days. For stimulation assays, 96 well plates were coated with 2 micrograms per milliliter of goat anti-mouse IgG antibodies overnight at 37° C. After washing the plates twice with Dulbecco's phosphate-buffered saline (dPBS), autologous and previously irradiated (3,000 rad) EBV-B cells (APC) were first added to each well at a concentration of 1×10^5 cells per well. The cells (APC) were cultured together with either a core histone peptide or a control peptide for 6 hours in HL-1 serum free medium (Bio Whittaker, Maryland). This procedure was followed by the addition to each well of CD4^+ T cells from the short-term lines at a concentration of 1×10^5 cells per well, and the addition of 0.5 micrograms per milliliter of a mouse monoclonal antibody (mAb) to human CD28. The final volume of the cultures was 200 microliters per well. Cells were co-cultured for 24 hours at 37° C. One-half the volume of supernatant was collected from each well for ELISA analysis of interleukin levels. Fresh medium (100 microliters) was added to cells, and the cells were incubated an additional 48 hours. [^3H] thymidine was added, and the cultures were incubated an additional 18 hours. Incorporated radioactivity was measured to quantitate T cell proliferation as described previously (Desai-Mehta et al., 1995, J. Clin. Invest. 95:53 1-541). HLA class II dependence of antigen-specific responses by the CD4^+ T cells was determined by adding to the co-cultures a blocking antibody from a panel of mAb to HLA class II molecules, as described previously (Desai-Mehta et al., 1995, J. Clin. Invest. 95:53 1-541). […]
IL-2 secreted by CD4^+ T cells in short term experiments was measured using an ELISA. […]

[2] = tested on: short-term CD4+ T cell lines; experiment: IL-2 production by short-term CD4+ T cell lines in response to histone peptides (pepscan); assay type: cell-based, human; conditions: short-term lines from 10 lupus patients
Method: Short-term T cell lines were rapidly thawed from liquid nitrogen and expanded in the presence of plate-bound anti-CD3 mAb, anti-CD28 mAb, and rIL-2 (20 units per milliliter). The expanded cells were transferred to fresh culture wells and rested by incubating in fresh medium for 10 to 14 days. For stimulation assays, 96 well plates were coated with 2 micrograms per milliliter of goat anti-mouse IgG antibodies overnight at 37° C. After washing the plates twice with Dulbecco's phosphate-buffered saline (dPBS), autologous and previously irradiated (3,000 rad) EBV-B cells (APC) were first added to each well at a concentration of 1×10^5 cells per well. The cells (APC) were cultured together with either a core histone peptide or a control peptide for 6 hours in HL-1 serum free medium (Bio Whittaker, Maryland). This procedure was followed by the addition to each well of CD4^+ T cells from the short-term lines at a concentration of 1×10^5 cells per well, and the addition of 0.5 micrograms per milliliter of a mouse monoclonal antibody (mAb) to human CD28. The final volume of the cultures was 200 microliters per well. Cells were co-cultured for 24 hours at 37° C. One-half the volume of supernatant was collected from each well for ELISA analysis of interleukin levels. Fresh medium (100 microliters) was added to cells, and the cells were incubated an additional 48 hours. [^3H] thymidine was added, and the cultures were incubated an additional 18 hours. Incorporated radioactivity was measured to quantitate T cell proliferation as described previously (Desai-Mehta et al., 1995, J. Clin. Invest. 95:53 1-541). HLA class II dependence of antigen-specific responses by the CD4^+ T cells was determined by adding to the co-cultures a blocking antibody from a panel of mAb to HLA class II molecules, as described previously (Desai-Mehta et al., 1995, J. Clin. Invest. 95:53 1-541).
IL-2 secreted by CD4^+ T cells in short term experiments was measured using an ELISA. Capture and biotinylated antibody pairs directed at human IL-2 and standards for use therein were purchased from PharMingen. […]

[3] = tested on: CD4+ T cells; experiment: Helper assay: CD4+ T cells from peptide-injected mice co-cultured with B cells from unmanipulated SNF1 mice; assay type: cell-based, mouse
Excerpt: (§1) Levels of IgG class autoantibodies specific for single-stranded DNA (ssDNA), double-stranded DNA (dsDNA), histones, and nucleosomes (i.e. histone-DNA complexes), in culture supernatants or serum, were estimated using an enzyme-linked immunosorbent assay (ELISA). Anti-DNA mAbs 564 and 205 were used to generate standard curves as previously described (Mohan et al., 1993, J. Exp. Med. 177:1367; Kaliyaperumal et al., 1996, J. Exp. Med. 183:2459; Mohan et al., 1995, J. Immunol. 154:1470; Adams et al., 1991, Proc. Natl. Acad. Sci. USA 88:11271). Sera were diluted 1:400 and heat-inactivated before use according to standard procedures. Sera from normal SWR mice were used as the negative control. Total polyclonal IgG levels were also measured by ELISA as previously described (Mohan et al., 1993, J. Exp. Med. 177:1367; Mohan et al., 1995, J. Immunol. 154:1470; Adams et al., 1991, Proc. Natl. Acad. Sci. USA 88:11271).
T-cells from peptide-treated mice used in the short-term experiments were co-cultured with splenic B cells from unmanipulated mice. Conversely, T cells from unmanipulated SNF1 mice (i.e. control mice) were co-cultured with splenic B cells from tolerized (i.e. peptide-injected) mice. Each of the cell types was seeded in 24-well plates at an initial concentration of 2.5×10^6 cells per well. Cultures were maintained for 7 days, as previously described (Datta et al., 1987, J. Exp. Med. 165:1252; Sainis and Datta, 1988, J. Immunol. 140:2215). B cells from unmanipulated or tolerized animals were cultured alone to measure baseline autoantibody production. Culture supernatants were collected, freeze-thawed, and assayed by ELISA for antibodies against ssDNA, dsDNA, histones and nucleosomes. For studies involving stimulation of B cells by soluble CD40 ligand, CD40L-CD8 fusion protein (Wortis et al., 1995, Proc. Natl. Acad. Sci. USA 92:3348) was added to either the co-culture wells or the wells with B cells alone and maintained in the medium for the entire 7-day culture period.

[4] = tested on: SNF1 mice; experiment: Brief therapy with nucleosomal histone peptides (long-term experiments): incidence of severe nephritis; assay type: in vivo, mouse
Method: (§2) Long-term experiments used 12 week-old, autoimmune, but pre-nephritic SNF1 female mice. Nine mice per peptide test group were injected intravenously with either a saline (solution) or a peptide solution comprising saline and 300 micrograms of one of H2B10-33, H416-39, and H471-94. Each mouse received three subsequent injections of either the saline solution or one of the peptide solutions at two-week intervals. The mice were monitored weekly for proteinuria using an Albustix kit (VWR Scientific, Chicago, Ill.), and sacrificed upon the development of persistent proteinuria. Persistent protenuria was identified as an amount of protein in urine that is equivalent to or greater than 300 milligrams per deciliter, and is a primary indication of severe kidney disease and damage associated with nephritis. Sera were collected from each mouse and the IgG anti-nuclear autoantibodies determined. Blood urea nitrogen (BUN) was measured by Azostix (Miles, Ekhart, Ind.). Immune complex deposition and glomerulonephritis in the kidney were detected by staining with Hematoxylin and Eosin and anti-mouse Ig. These procedures were carried out as previously described (Mohan et al., 1993, J. Exp. Med. 177:1367; Mohan et al., 1995, J. Immunol. 154:1470; Eastcott et al., 1983, J. Immunol. 131:2232; Adams et al., 1991, Proc. Natl. Acad. Sci. USA 88:11271; Kalled et al., 1998, J. Immunol. 160:2158; Gaynor et al., 1997, Proc. Natl. Acad. Sci. USA 94:1955).

[5] = tested on: SNF1 mice; experiment: Chronic therapy of established glomerulonephritis with nucleosomal peptides; assay type: in vivo, mouse
Method: Six mice per group were injected intraperitoneally once each month with either a saline solution or a peptide solution comprising saline and 300 micrograms of one of the identified peptides. The endpoint of these experiments was the development of moribund state due to renal failure.

[6] = tested on: SNF1 mice; experiment: Short-term tolerance experiments: grading of lupus nephritis at sacrifice; assay type: in vivo, mouse; conditions: short-term batch, at sacrifice two weeks after last injection
Method: Short-term experiments were conducted to test the early immunological consequences of tolerance therapy. Twelve week old SNF1 mice were injected once a week for four weeks with either a saline solution or a peptide solution comprising saline and 300 micrograms of one of the above described peptides. Mice were sacrificed at two weeks after the last injection. Presence of autoimmune T and B cells was analyzed and renal lesions were graded.

[7] = tested on: SNF1 mice; experiment: IgG anti-nuclear autoantibody and total IgG levels in sera of peptide-injected mice (ELISA); assay type: in vivo, mouse; conditions: sera 1:400
Method: as §2, §1

## H383-97: H3 peptide used as additional background control, partly within a stimulatory region in H3 (RFQSSAVMALQEACE; UniProt P68431 84-98, looked up, fragment)
[1]
  stimulation of DD2: not recognized by any of the T-cell lines or clone DD2
[2]
  recognition by / response of lupus T cell lines: not recognized by any of the T-cell lines or clone DD2

## H2B10-33: histone 2B protein (H2B) amino acids 10-33
[3]; T cells from treated mice + B cells from unmanipulated mice
  reduction of anti-ssDNA antibody production relative to control group: approximately 55%
[3]; T cells from treated mice + B cells from unmanipulated mice, 7 days
  decrease in anti-dsDNA antibody production relative to control group: five fold decrease
[3]; rIL-2 added at beginning of 7-day culture
  increase in help for anti-dsDNA antibody production following addition of rIL-2: did not exhibit any increase
[4]; at 28 weeks of age, 300 micrograms i.v., four injections at two-week intervals from 12 weeks
  incidence of severe nephritis: did not develop disease
[4]; at 36-38 weeks of age, control 88.8%
  incidence of severe nephritis: 33.3%
[5]; by 26 months age
  survival: only one mouse in the H2B10-33 group survived
[5]; two months after start of treatment (all controls dead), 300 micrograms i.p. monthly, 18-month old mice
  mice alive: 66.6%
[6]
  Percent Incidence, Grading of Lupus Nephritis 1+: 66.6
  Percent Incidence, Grading of Lupus Nephritis 2+: 33.3
[7]; at 36 weeks of age, control 26±3.2
  serum anti-dsDNA antibody level: 14.0±3.2 units
[7]; at the start of treatment (12 weeks), control 5.5±0.3
  serum anti-dsDNA antibody level: 7.7±0.9 units

## H355-69: 15-mer nucleosomal histone H3 peptide, positions 55-69 (QKSTELLIRKLPFQR; UniProt P68431 56-70, looked up, fragment)
[1]
  stimulation of DD2: stimulated DD2 very weakly

## anti-CD3: Anti-CD3 antibody (mAb) produced by hybridoma OKT3, positive control stimulus [reference compound]
[1]; background with APC without peptide 132
  IL-2 production by T cell clone DD2: 554 picograms per milliliter
